Like-named read-outs stand apart in the source and are kept apart here.
What was measured:
Huh-7 Cells = assay: Cellular NAD+ levels in Huh-7 cells (LCMS/MS); format: cell-based; details: 125 μm, four hours of incubation
Method: Huh-7 Cells, sourced from NCCS Pune, were cultured in RPMI media containing FBS & Antibiotics. Cells from different flasks (80-90% confluent) were pooled into a 15 mL conical tube and centrifuged for 5 mins at 1200 rpm for 5 mins. The supernatant solution was discarded, and the pellet was washed with 5 mL sterile PBS (without Ca^2+ and Mg^2+). The tube was then centrifuged at 1200 rpm for 5 mins and the supernatant was discarded. The cell pellet was resuspended in 7 mL of RPMI media, and a cell count was done using 10 uL of the cell solution. 1.5 million cells from the cell solution were seeded into 1.5 mL microcentrifuge tubes. […] The tubes were placed in racks and gently swirled to mix the compounds into the media containing the cells. These tubes were then incubated for 4 hours in a 37° C. incubator at 5% CO2. After 4 hours of incubation the cells were spun down at 1000 rpm for 10 mins, the supernatant was discarded carefully, and cells were snap frozen in liquid nitrogen. When the samples were run, the extraction of the cells was on ice, cells were lysed using 20 uL deionized water and then ice cold 80% methanol containing the internal standard—Rac-Tenofovir D was added. The tubes were then vortexed at 2500 rpm for 8 minutes and then centrifuged at […] for 10 minutes. 150 uL of the supernatant was carefully transferred to HPLC vials and was analyzed for NAD^+ on the Abscised 4000 Q Trap LCMS/MS system. A C18, 3.5 μm, 2.1×100 mm, Bridge Column was used in the LC. The mobile phase consisted of 10 mM ammonium acetate with 0.1% acetic acid & 0.1% hexylamine as Solvent-A and 10 mM Ammonium acetate with 0.1% acetic acid and 0.1% hexylamine in 95/5 MeOH/H2O as Solvent-B. The gradient used was 0 mins-0.0% B, 0.5 mins-100% B, 1.5 mins-100% B, 3.0 mins-100% B, 3.1 mins-0.0% B, 7.0-STOP. The column flow rate was 0.5 mL/min. The sample injection volume was […].

Human Plasma Protein = assay: Human plasma protein binding (RED dialysis); details: human, plasma
Method: The test compounds were weighed and prepared as 10 mM stocks in 100% DMSO. 10 μM is the final test concentration for all compounds.
The samples were prepared by spiking test compound(s) in plasma at 10 μM final concentration. 200 μL of plasma containing the test compound was added into the donor well (RED Chamber) of the insert. Simultaneously 350 μL of dialysis buffer (1×PBS) was added into the receiver well (white chamber). Two measurements were made for each test compound. The plate was covered with a sealer and incubated at 37° C. degrees on an orbital shaker at 500 rpm for 5 hours.
After incubation, 25 μl of plasma (RED chamber) and 25 μl of buffer (white chamber) samples were separately collected into separate centrifugation tubes. Plasma and buffer samples were precipitated with 200 μL of 100% acetonitrile containing internal standards. 25 μl of T0 (T Zero) plasma samples (samples before 5 hours incubation) were collected (To samples were processed immediately after the preparation of plasma working stock solution. These samples serve as a measure for calculating the percentage recovery of the test compound and precipitated using 100% acetonitrile containing internal standards). The samples were vortexed at 1000 rpm for 5 min and centrifuged at 4000 rpm for 10 min. The supernatant was diluted 2-fold with water and injected into LC-MS/MS.
The % of Plasma bound/unbound fraction was calculated by the following equation: % Unbound or % free=100*(Fc/Tc); % Recovery=100 (Fc+Tc)/[…] where Tc=Total compound concentration as determined by the calculated concentration on the plasma side of the membrane (concentration in plasma chamber), Fc=Free compound concentration as determined by the calculated concentration on the buffer side of the membrane (concentration in buffer chamber) and T0=Total compound concentration as determined before dialysis.

[1] = Caco-2 permeability assay; details: human
Source text: The endpoint measured is the intestinal permeability expressed as apparent permeability—Papp value. All permeability values are represented as ×10^−6 cm/sec.

human hepatocytes [2] = assay: Human hepatocyte clearance; format: in vitro ADME
Procedure, shortened: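 Cryopreserved human hepatocytes at a 2 million cell working stock mixed 1:1 with 2 μM compound working stock at 37 °C, in duplicate. Samples quenched in acetonitrile with internal standard at 0, 15, 30, 60 and 90 min, then analysed by LC-MS/MS.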

human hepatocytes [3] = assay: Human hepatocyte stability
Method: 10 mM stock solution of test compound was prepared in DMSO and diluted to a concentration of 1 mM with DMSO. Working concentration of 2 μM was prepared by further dilution with PBS. Preincubation mixture of 150 μL of hepatocyte cell suspension (1,000,000 cells/mL, INVITROGRO HT medium buffer), was added to vials for preincubation for 10 min @37° C.
150 μL of 2 μM working stock of the test compound was added to the cell suspension and incubated at @37 C at 500 rpm. The reaction was stopped at 0, 15, 30, 60 and 90 min by precipitating 50 μL of the incubation mixture with 150 μL of acetonitrile. Samples were vortexed for 5 min at 1200 rpm and centrifuged at 4000 rpm for 10 min. 150 μL of the supernatant was diluted with 150 μL of water and injected in MS system (SCIEX, API 4500 Q Trap) for analysis.

Kinetic solubility = format: physicochemical; details: for solubility at 1.5 h: aqueous buffer, kinetic from dmso stock, 0.1 M phosphate buffered saline pH 7.4, target 100 μM; for % Solubility: at 100 μM, 0.1 M phosphate buffered saline pH 7.4
Method: The target compound concentration was 100 μM (kinetic), the assay buffer was 0.1 M phosphate buffered saline pH 7.4, the mixing period was 1.5 h (kinetic). The sample was prepared by centrifugation or filtration and the detection method used was HPLC with UV-vis spectrometry.

[4] = Long term solid stability at −15° C. (purity by UPLC); format: physicochemical; details: for Purity % by UP LC: solid state, −15° C. (freezer)
Method: The compound from this vial was assessed for purity by UPLC at two different timepoints: Day 0 and Day 93 (3 months).

[5] = PK study in rats (plasma); format: in vivo; details: rats; for half-life: plasma
[6] = read-out: Mean Solubility (μg/mL)
[7] = rat, Group 2: compound 100 83 mg/kg IV, analyte compound 100 in plasma

Compound	NAD+ level increase compared to untreated cells (Huh-7 Cells)	Papp A→B [1]	Papp B→A [1]	efflux ratio [1]	recovery ([1]; Caco-2, % Recovery A to B)	recovery ([1]; Caco-2, % Recovery B to A)	clearance in human hepatocytes (in words) (human hepatocytes [3])	% Parent Remaining (human hepatocytes [3]; 0 mins)	% Parent Remaining (human hepatocytes [3]; 15 mins)	% Parent Remaining (human hepatocytes [3]; 30 mins)	% Parent Remaining (human hepatocytes [3]; 60 mins)	% Parent Remaining (human hepatocytes [3]; 90 mins)	solubility at 1.5 h (Kinetic solubility; read-out: Mean Solubility)	solubility at 1.5 h (Kinetic solubility; [6])	% Solubility (Kinetic solubility)	protein binding (footnote, in words) (Human Plasma Protein)	also measured
COC(=O)[C@@H](C)NP(=O)(OC[C@H]1OC(OC(=O)c2cccnc2)[C@H](O)[C@@H]1O)Oc1ccccc1 (stereo partly drawn) [Compound 101, (3R, 4S, 5R)-3,4-dihydroxy-5-(((((1-methoxy-1-oxopropan-2-yl)amino)(phenoxy)phosphoryl)oxy)methyl)tetrahydrofuran-2-yl nicotinate]	showed an increase	0.2 ×10⁻⁶ cm/s	6.1 ×10⁻⁶ cm/s	39	86.5%	87.9%	high clearance	100%	43%	20.1%	6.4%	2.0%	117 µM	58 µg/mL	100%	–	Remarks (binding class) (Human Plasma Protein): Medium binding; Remarks (clearance class) (human hepatocytes [2]): high clearance and High
O=C(OC[C@H]1OC(O)[C@H](O)[C@@H]1O)c1ccccn1 (stereo partly drawn) [Compound 102, (3,4,5-trihydroxytetrahydrofuran-2-yl) methyl picolinate]	showed an increase	0.9 ×10⁻⁶ cm/s	0.8 ×10⁻⁶ cm/s	1	94.9%	90.7%	medium clearance	–	–	–	–	–	105 µM	26.9 µg/mL	100%	Compounds 100 and 102 were not detected indicating no protein binding as shown in Table 12, above.	–
O=C(OC1O[C@H](CO)[C@@H](O)[C@H]1O)c1cccnc1 (stereo partly drawn) [Compound 100, (3R, 4S, 5R)-3,4-dihydroxy-5-(hydroxymethyl) tetrahydrofuran-2-yl nicotinate]	showed an increase	0.5 ×10⁻⁶ cm/s	0.6 ×10⁻⁶ cm/s	1.2	98.5%	89%	medium clearance	100%	97%	87.6%	73.0%	66.4%	96.5 µM	24.6 µg/mL	96%	Compounds 100 and 102 were not detected indicating no protein binding as shown in Table 12, above.	Purity % by UP LC ([4]; Day 0): 98.92%; Purity % by UP LC ([4]; Day 93): 99.62%; solid state stability (in words) ([4]; stored at −15° C. for up to three months): stable; half-life ([5]; rat, iv, 83 mg/kg, Group 2: compound 100 83 mg/kg IV, analyte compound 100 in plasma, read-out: T1/2 (converted)): 1.01 ± 0.22 h; half-life ([5]; rat, iv, 83 mg/kg, delivered by IV, read-out: T1/2 of degradation in rat plasma (converted)): 1 h; half-life ([5]; rat, po, 415 mg/kg, oral, said to be consistent with hepatocyte stability in vitro, read-out: T1/2 following oral administration): 5 to 6 h; Cmax [5, 7]: 188 ± 97.2 µM; Tmax [5, 7]: 8.34 ± 5.76 min; clearance [5, 7]: 37.7 mL/min/kg; AUC(0-t) ([5]; rat, Group 2: compound 100 83 mg/kg IV, analyte compound 100 in plasma, read-out: AUC0-1): 148 ± 34 µM·h; Vd ([5]; rat, Group 2: compound 100 83 mg/kg IV, analyte compound 100 in plasma, read-out: Vss): 3.4 ± 1.62 L/kg; in vivo pharmacology compared with nicotinic acid (conclusion) [5]: superior in vivo pharmacology than nicotinic acid with a longer half-life, lower maximal concentration (C), better bioavailability and has a depot effect in the kidney and liver; IV pharmacokinetics profile (in words) ([5]; IV): biphasic rapid distribution followed by elimination
